# Results from US8852632B2, “Pharmaceutical formulation containing a release rate controlling composition” (Merck Sharp & Dohme Corp., priority 2004, dated 2014).
# Assay: Hygroscopicity (vapor sorption analysis)
# Assay type: physicochemical
# Method: Hygroscopicity data was obtained on a VTI Symmetrical Vapor Sorption Analyzer Model SGA-1. Data was collected at room temperature from 5-95% relative humidity and back, 5% relative humidity change per step. Equilibrium conditions were 0.01 weight percent change in 5 minutes with a maximum equilibration time of 180 minutes. […] When equilibrated back down to 5% RH, the material returned back to approximately its dry weight.
compound,measurement,setting,value
Cc1nnc(C(=O)NC(C)(C)c2nc(C(=O)NCc3ccc(F)cc3)c(O)c(=O)n2C)o1,XRPD analysis after the hygroscopicity experiment (phase stability),after cycling 5-95% relative humidity and back,had not changed phases
same,weight increase (hygroscopicity),equilibrated at 95% RH at 25° C.,1.8%
